Patent US9695222B2, “Ghrelin mimetic polypeptide hapten immunoconjugates having improved solubility and immunogenicity and methods of use thereof” (The Scripps Research Institute, priority 2011, dated 2017)
≈ marks a conversion by molar mass, not a printed value. Where two headings read alike, the source gives them in different places. Non-standard residues stand in square brackets, D forms with d. Residues, ends and D or L forms follow the SMILES beside them. *: point of attachment. PEG4 = NCCOCCOCCOCCOCCC(=O)O; Octanoyl = CCCCCCCC(=O)*; Butyryl = CCCC(=O)*

Columns and labels:
physchem = settings: water
Ser-3-n-octanoyl ghrelin = experiment: Competition ELISA of plasma of immunized mice (Kd-app for ghrelin); type: binding; settings: Tables 4A and 4B
Experimental: Immunization involved five (5) immunizations over ten (10) weeks. Age and weight-matched mice received immunizations (i.p. 0.2 mL) 90 min before the dark cycle on experimental days 0, 14 (2 weeks), 28 (4 weeks), 49 (7 weeks) and 70 (10 weeks). All immunizations used ALUM (Pierce) as the adjuvant, and contained 50 μg of protein (i.e. immunoconjugates of Ghr1, Ghr2, PEG-Ghr4 and PEG-Ghr5 peptides with carrier proteins KLH, TT or CRM197). Tail blood was collected one week post-immunization, centrifuged and plasma analyzed for antibody titers and ghrelin binding affinity.
For competitive ELISA, plates (96-well) were coated overnight at 4° C. with freshly prepared ghrelin-BSA conjugate. The plates were blocked with 4% skim milk, washed and plasma samples were added at appropriate dilutions. The plates were washed and Ser-3-n-octanoyl ghrelin was added to the wells in a concentration series starting at 100 μM. Plates were incubated for 1 h at 37° C., thoroughly washed, and goat anti-mouse-horseradish peroxidase (HRP) conjugate (Pierce) was added. After an incubation period of 1 h at RT, plates were thoroughly washed again and the HRP substrate (TMB substrate kit; Pierce) was added, the reaction was allowed to develop for 15 min and stopped by the addition of 2M H2SO4. The absorbance (450 nm) was read and the values plotted using GraFit (Erithacus Software Ltd). The free antigen concentration at which the absorbance value is 50% of the maximum absorbance was considered the average Kd-app of the plasma for ghrelin.

[1] = not given; remark: listed apart in the source
[2] = Hydrolytic stability of ghrelin haptens in buffered solutions for 7 days; type: physicochemical
Experimental: To test the hydrolytic stability of the Ghrelin haptens, 1 mg/mL solutions of Ghr1, Ghr4, Ghr5 and the corresponding Ghr4 and Ghr5 haptens comprising the spacer moiety (PEG-Ghr4 and PEG-Ghr5 respectively) were maintained in buffered solutions for 7 days at either 4° C. or 37° C. at pH values of pH5 (in 10 mM citrate buffer), pH6 (in 10 mM maleate buffer) or pH7 (in 10 mM phosphate buffer). FIG. 2 is a graphical representation comparing the percentage of the active acyl form of each Ghrelin hapten present after seven days with the percentage of total hydrolysis and the percentage of total oxidative degradation for each hapten.

## CCCC(=O)OC[C@H](NC(=O)[C@H](CO)NC(=O)CN)C(=O)N[C@@H](Cc1ccccc1)C(=O)N[C@@H](CC(C)C)C(=O)N[C@@H](CO)C(=O)N1CCC[C@H]1C(=O)N[C@@H](CCC(=O)O)C(=O)N[C@@H](Cc1c[nH]cn1)C(=O)N[C@@H](CCC(N)=O)C(=O)N[C@@H](CS)C(N)=O [Ghr1]
physchem; pH 5
  solubility: > 1000 µg/mL
physchem; pH 6
  solubility: > 1000 µg/mL
physchem; pH 7
  solubility: > 1000 µg/mL
Ser-3-n-octanoyl ghrelin
  Affinity of induced anti-ghrelin antibodies: high affinity anti-ghrelin antibodies in some instances
  Selectivity of induced antibodies for acylated ghrelin over the des-acyl form: no particular selectivity

## CC(C)C[C@H](NC(=O)[C@H](CCCCN)NC(=O)[C@H](C)NC(=O)[C@@H]1CCCN1C(=O)[C@@H]1CCCN1C(=O)[C@H](CCCCN)NC(=O)[C@H](CCCCN)NC(=O)[C@H](CO)NC(=O)[C@H](CCC(=O)O)NC(=O)[C@H](CCCCN)NC(=O)[C@H](CCCNC(=N)N)NC(=O)[C@H](CCC(N)=O)NC(=O)[C@H](CCC(N)=O)NC(=O)[C@@H](N)CS)C(=O)N[C@@H](CCC(N)=O)C(=O)N1CCC[C@H]1C(=O)N[C@@H](CCCNC(=N)N)C(N)=O [Ghr2]
physchem; pH 5
  solubility: > 1000 µg/mL
physchem; pH 6
  solubility: > 1000 µg/mL
physchem; pH 7
  solubility: > 1000 µg/mL
Ser-3-n-octanoyl ghrelin
  Affinity of induced anti-ghrelin antibodies: high affinity anti-ghrelin antibodies in some instances
  Selectivity of induced antibodies for acylated ghrelin over the des-acyl form: no particular selectivity

## CCCC(=O)OC[C@H](NC(=O)[C@H](CO)NC(=O)CN)C(=O)N[C@@H](Cc1ccccc1)C(=O)N[C@@H](CC(C)C)C(=O)N[C@@H](CS)C(N)=O [Ghr4, GSS(butyryl)FLC-NH2] (H-GSS(Butyryl)FLC-NH2)
physchem; pH 6
  solubility: > 1000 µg/mL
physchem; pH 7
  solubility: < 100 µg/mL
other
  Solubility of hapten at pH5: insoluble

## CCCCCCCC(=O)OC[C@H](NC(=O)[C@H](CO)NC(=O)CN)C(=O)N[C@@H](Cc1ccccc1)C(=O)N[C@@H](CC(C)C)C(=O)N[C@@H](CS)C(N)=O [Ghr5, GSS(octanoyl)FLC-NH2] (H-GSS(Octanoyl)FLC-NH2)
other
  Solubility of hapten at pH5: insoluble
pH6
  Solubility of hapten at pH6: insoluble
pH7
  Solubility of hapten at pH7: insoluble

## CCCC(=O)OC[C@H](NC(=O)[C@H](CO)NC(=O)CN)C(=O)N[C@@H](Cc1ccccc1)C(=O)N[C@@H](CC(C)C)C(=O)NCCOCCOCCOCCOCCC(=O)N[C@@H](CS)C(N)=O [PEG-Ghr4, GSS(butyryl)FL-PEG4-C-NH2] (H-GSS(Butyryl)FL[PEG4]C-NH2)
[1]; pH5
  solubility: > 1000 µg/mL
[1]; pH6
  solubility: > 1000 µg/mL
[1]; pH7
  solubility: > 1000 µg/mL

## CCCCCCCC(=O)OC[C@H](NC(=O)[C@H](CO)NC(=O)CN)C(=O)N[C@@H](Cc1ccccc1)C(=O)N[C@@H](CC(C)C)C(=O)NCCOCCOCCOCCOCCC(=O)N[C@@H](CS)C(N)=O [PEG-Ghr5, GSS(octanoyl)FL-PEG4-C-NH2] (H-GSS(Octanoyl)FL[PEG4]C-NH2)
physchem; pH 5
  solubility: > 1000 µg/mL
physchem; pH 6
  solubility: > 1000 µg/mL
physchem; pH 7
  solubility: ~400 µg/mL (≈ 406 µM)
[2]; 7 days, FIG. 2
  Hydrolysis relative to Ghr5 without the spacer moiety: less hydrolysis
  Oxidative degradation relative to Ghr5 without the spacer moiety: significantly reduced oxidative degradation
[2]; pH 5, 7 days, 4° C.
  Hydrolysis compared with native protein (rGhrelin): approximately the same amount of hydrolysis as the native protein
  Oxidative degradation compared with Ghr5 hapten: significantly less oxidative degradation
